According to ChEMBL document CHEMBL2384956, “Discovery of tetrahydropyrazolopyrimidine carboxamide derivatives as potent and orally active antitubercular agents” (ACS Med Chem Lett, 2013):
Converted amounts (≈) assume the structure as drawn. The source made the active and inactive calls. The calls are words filed in the database; no cut-off is given here.

Experiments:
[1] = Octanol-water partition coefficient, log P of the compound; type: physicochemical
[2] = tested on: Mycobacterium tuberculosis; test: Antitubercular activity against Mycobacterium tuberculosis H37Rv ATCC 27294 […]; type: functional
[3] = Aqueous solubility of the compound at pH 6.8; type: physicochemical
[4] = Plasma protein binding in human; type: ADME, cell-free; settings: read-out: PPB (converted)
[5] = Plasma protein binding in mouse; type: ADME, cell-free; settings: read-out: PPB (converted)
[6] = Clearance in mouse at 5 mg/kg, iv; type: ADME, organism-based; design: dose 5 mg/kg, route intravenous; settings: in vivo
[7] = AUC in mouse at 25 mg/kg, po; type: ADME, organism-based; design: dose 25 mg/kg, route oral; settings: plasma
[8] = Elimination half life in mouse at 5 mg/kg, iv; type: ADME, organism-based; design: dose 5 mg/kg, route intravenous; settings: in vivo, read-out: beta t1/2 (converted)
[9] = Ratio of AUC in mouse lung to AUC in mouse plasma at 25 mg/kg, po; type: ADME, organism-based; design: dose 25 mg/kg, route oral; settings: read-out: Ratio AUC
[10] = Volume of distribution at steady state in mouse at 5 mg/kg, iv; type: ADME, organism-based; design: dose 5 mg/kg, route intravenous; settings: in vivo, read-out: Vdss
[11] = Ratio of Cmax in mouse lung to Cmax in mouse plasma at 25 mg/kg, po; type: ADME, organism-based; design: dose 25 mg/kg, route oral
Cytochrome P450 3A4 = Cytochrome P450 3A4 (Homo sapiens, UniProt P08684); test: Inhibition of CYP3A4 in human liver microsomes using midazolam as substrate by LC-MS/MS analysis; type: ADME, Microsome
[12] = AUC in mouse at 200 mg/kg, po; type: ADME, organism-based; design: dose 200 mg/kg, route oral; settings: plasma
[13] = Oral bioavailability in mouse at 25 mg/kg; type: ADME, organism-based; settings: in vivo
Cytochrome P450 3A5 = Cytochrome P450 3A5 (Homo sapiens, UniProt P20815); test: Inhibition of CYP3A5 in human liver microsomes using midazolam as substrate by LC-MS/MS analysis; type: ADME, Microsome
Cytochrome P450 2D6 = Cytochrome P450 2D6 (Homo sapiens, UniProt P10635); test: Inhibition of CYP2D6 in human liver microsomes using bufuralol as substrate by LC-MS/MS analysis; type: ADME, Microsome
[14] = tested on: Mycobacterium tuberculosis; test: Antitubercular activity against Mycobacterium tuberculosis infected in BALB/c mouse assessed as reduction in log10CFU at 100 mg/kg, po qd administered 7 days post-infection for 28 days relative to control; type: functional
[15] = Clearance in mouse liver microsomes; type: ADME, Microsome; settings: read-out: CLH
[16] = molecular target: T1, Nuclear receptor subfamily 1 group I member 2 (Homo sapiens, UniProt O75469); test: Induction of PXR-mediated CYP3A4 expression in human DPX2 cells after 24 hrs by luciferase reporter gene assay; type: cell-based; settings: dpx2, 24 h
T1 sequence (O75469 whole entry): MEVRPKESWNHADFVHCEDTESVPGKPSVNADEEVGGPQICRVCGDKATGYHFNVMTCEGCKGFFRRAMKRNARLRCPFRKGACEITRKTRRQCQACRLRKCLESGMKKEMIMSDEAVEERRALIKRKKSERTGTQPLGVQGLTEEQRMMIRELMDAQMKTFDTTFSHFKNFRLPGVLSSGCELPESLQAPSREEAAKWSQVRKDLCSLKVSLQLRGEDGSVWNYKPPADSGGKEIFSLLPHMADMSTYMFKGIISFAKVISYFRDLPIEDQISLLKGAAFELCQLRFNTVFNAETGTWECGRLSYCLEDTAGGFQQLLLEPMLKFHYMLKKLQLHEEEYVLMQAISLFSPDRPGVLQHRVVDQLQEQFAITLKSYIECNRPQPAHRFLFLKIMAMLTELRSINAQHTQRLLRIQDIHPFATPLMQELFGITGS

[17] = Cmax in mouse at 200 mg/kg, po; type: ADME, organism-based; design: dose 200 mg/kg, route oral; settings: in vivo
[18] = Cmax in mouse at 25 mg/kg, po; type: ADME, organism-based; design: dose 25 mg/kg, route oral; settings: in vivo
Cytochrome P450 2C9 = Cytochrome P450 2C9 (Homo sapiens, UniProt P11712); test: Inhibition of CYP2C9 in human liver microsomes using diclofenac as substrate by LC-MS/MS analysis; type: ADME, Microsome
[19] = AUC in mouse; type: ADME, organism-based; settings: plasma
[20] = Cmax in mouse; type: ADME, organism-based; settings: in vivo
[21] = tested on: Mycobacterium tuberculosis; test: Bactericidal activity against Mycobacterium tuberculosis H37Rv ATCC 27294 infected in activated human THP1 cells; type: functional, organism-based; settings: THP-1

Chain of Cytochrome P450 2C9 (P11712 whole entry): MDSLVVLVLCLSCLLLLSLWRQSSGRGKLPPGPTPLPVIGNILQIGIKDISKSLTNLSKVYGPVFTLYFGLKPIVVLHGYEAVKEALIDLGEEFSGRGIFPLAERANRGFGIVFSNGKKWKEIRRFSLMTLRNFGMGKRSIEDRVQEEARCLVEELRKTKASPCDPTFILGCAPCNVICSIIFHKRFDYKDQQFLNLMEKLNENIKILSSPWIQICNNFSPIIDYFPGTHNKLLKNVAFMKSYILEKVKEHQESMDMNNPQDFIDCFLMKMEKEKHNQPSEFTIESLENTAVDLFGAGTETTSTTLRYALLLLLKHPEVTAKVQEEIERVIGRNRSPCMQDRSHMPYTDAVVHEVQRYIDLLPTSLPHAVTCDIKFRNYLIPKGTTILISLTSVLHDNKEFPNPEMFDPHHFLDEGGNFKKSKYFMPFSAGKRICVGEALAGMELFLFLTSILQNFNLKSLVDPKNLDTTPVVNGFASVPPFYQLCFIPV
Chain of Cytochrome P450 2D6 (P10635 whole entry): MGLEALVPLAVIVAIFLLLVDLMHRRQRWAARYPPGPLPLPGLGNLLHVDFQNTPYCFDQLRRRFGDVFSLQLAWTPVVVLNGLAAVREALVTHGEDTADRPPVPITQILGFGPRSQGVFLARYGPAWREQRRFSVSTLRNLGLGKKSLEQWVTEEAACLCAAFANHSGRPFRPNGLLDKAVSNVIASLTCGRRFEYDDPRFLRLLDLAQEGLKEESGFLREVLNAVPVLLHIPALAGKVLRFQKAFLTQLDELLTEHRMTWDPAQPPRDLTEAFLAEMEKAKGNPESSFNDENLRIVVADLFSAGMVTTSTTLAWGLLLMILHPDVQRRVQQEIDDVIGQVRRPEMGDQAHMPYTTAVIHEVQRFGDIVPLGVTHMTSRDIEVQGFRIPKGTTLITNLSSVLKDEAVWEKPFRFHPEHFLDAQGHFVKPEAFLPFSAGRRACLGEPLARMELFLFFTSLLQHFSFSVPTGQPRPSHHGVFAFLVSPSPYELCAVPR
Chain of Cytochrome P450 3A5 (P20815 whole entry): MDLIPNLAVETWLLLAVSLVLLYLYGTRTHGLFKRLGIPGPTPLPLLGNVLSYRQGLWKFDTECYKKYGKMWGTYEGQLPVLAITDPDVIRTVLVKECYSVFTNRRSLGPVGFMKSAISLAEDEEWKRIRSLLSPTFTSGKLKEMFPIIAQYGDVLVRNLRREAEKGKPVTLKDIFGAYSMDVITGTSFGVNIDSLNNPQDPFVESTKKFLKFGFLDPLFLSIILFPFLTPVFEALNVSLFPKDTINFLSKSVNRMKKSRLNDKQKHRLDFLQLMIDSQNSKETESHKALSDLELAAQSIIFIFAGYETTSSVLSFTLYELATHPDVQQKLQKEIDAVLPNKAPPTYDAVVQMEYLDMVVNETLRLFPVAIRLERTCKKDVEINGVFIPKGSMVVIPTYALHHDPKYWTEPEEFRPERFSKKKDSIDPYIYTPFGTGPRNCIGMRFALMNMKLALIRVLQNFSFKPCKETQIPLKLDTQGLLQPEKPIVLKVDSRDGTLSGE
Chain of Cytochrome P450 3A4 (P08684 whole entry): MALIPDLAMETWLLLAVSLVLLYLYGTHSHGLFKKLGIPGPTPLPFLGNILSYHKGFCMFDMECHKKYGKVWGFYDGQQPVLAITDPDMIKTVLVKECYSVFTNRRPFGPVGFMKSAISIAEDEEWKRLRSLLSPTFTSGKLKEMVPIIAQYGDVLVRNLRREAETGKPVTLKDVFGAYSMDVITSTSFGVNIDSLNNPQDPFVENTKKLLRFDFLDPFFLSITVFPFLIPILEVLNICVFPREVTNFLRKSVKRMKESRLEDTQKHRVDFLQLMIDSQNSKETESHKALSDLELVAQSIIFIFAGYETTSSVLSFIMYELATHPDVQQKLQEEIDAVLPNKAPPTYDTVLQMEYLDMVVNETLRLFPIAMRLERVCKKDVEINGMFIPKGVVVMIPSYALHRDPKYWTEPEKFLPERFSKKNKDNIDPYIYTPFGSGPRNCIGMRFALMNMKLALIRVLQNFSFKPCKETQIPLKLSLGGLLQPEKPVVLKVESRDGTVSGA

Structure (SMILES) | logP [1] | MIC [2] | solubility [3] | fraction unbound [4] | fraction unbound [5] | clearance [6] | AUC [7] | half-life [8] | Kp [9] | Vd [10] | Kp [11] | inhibition (INH) (Cytochrome P450 3A4) | bioavailability [13] | inhibition (INH) (Cytochrome P450 3A5) | inhibition (INH) (Cytochrome P450 2D6) | Activity [14] | microsomal CLint [15] | Activity [16] | Cmax [18] | inhibition (INH) (Cytochrome P450 2C9) | also measured
COCCOc1ccc([C@H]2C[C@@H](C(F)(F)F)n3ncc(C(=O)NCc4ccc(F)cn4)c3N2)cc1 | 3.2 | 3.7 µM (≈ 1.83 µg/mL) | 20 µM (≈ 9.87 µg/mL) | 0.122 | 0.108 |  |  |  |  |  |  |  |  |  |  |  |  |  |  |  | 
COc1ccc(CNC(=O)c2cnn3c2N[C@@H](c2ccc(C)cc2)C[C@H]3C(F)(F)F)cn1 | 5.1 | 0.47 µM (≈ 0.209 µg/mL) | < 4 µM | < 0.01 | < 0.01 |  |  |  |  |  |  |  |  |  |  |  |  |  |  |  | 
COCCOc1ccc([C@H]2C[C@@H](C(F)(F)F)n3ncc(C(=O)NCc4ccc(F)cc4)c3N2)cc1 | 4.1 | 0.44 µM (≈ 0.217 µg/mL) | 6 µM (≈ 2.95 µg/mL) | 0.019 | 0.015 |  |  |  |  |  |  |  |  |  |  |  |  |  |  |  | 
O=C(NCc1ccc(F)cc1)c1cnn2c1N[C@@H](c1ccc(OC3COC3)cc1)C[C@H]2C(F)(F)F | 5.1 | 0.73 µM (≈ 0.358 µg/mL) | 9 µM (≈ 4.41 µg/mL) | 0.027 | 0.024 | 9.9 mL/min/kg | 41.7 µM·h | 4.1 h | 2.2 | 2.5 L/kg | 2.7 | Not Active | 52% | Not Active | Not Active | inactive | 8.92 µL/min/mg | Not Active | 3.7 µM | Not Active | AUC [12]: 71.3 µM·h; Cmax [17]: 7.3 µM
Cc1ccc([C@H]2C[C@@H](C(F)(F)F)n3ncc(C(=O)NCc4ccc(F)cn4)c3N2)nc1 | 3.2 | 52.2 µM (≈ 22.7 µg/mL) | 347 µM (≈ 151 µg/mL) | 0.181 | 0.128 |  |  |  |  |  |  |  |  |  |  |  |  |  |  |  | 
Cc1ccc([C@H]2C[C@@H](C(F)(F)F)n3ncc(C(=O)NCc4ccc(F)cc4)c3N2)o1 | 5.5 | 0.13 µM (≈ 0.0549 µg/mL) | < 4 µM | < 0.01 | < 0.01 |  |  |  |  |  |  |  |  |  |  |  |  |  |  |  | 
Cc1ccc([C@H]2C[C@@H](C(F)(F)F)n3ncc(C(=O)NCc4ccc(F)cn4)c3N2)cc1 | 4.9 | 0.83 µM (≈ 0.36 µg/mL) | < 4 µM | 0.01 | < 0.01 |  |  |  |  |  |  |  |  |  |  |  |  |  |  |  | 
O=C(NCc1ccc(F)cc1)c1cnn2c1N[C@@H](c1ccc(N3CCOCC3)cc1)C[C@H]2C(F)(F)F | 4.8 | 0.87 µM (≈ 0.438 µg/mL) | < 4 µM | 0.018 | 0.016 |  |  |  |  |  |  |  |  |  |  |  |  |  |  |  | 
Cc1ccc([C@H]2C[C@@H](C(F)(F)F)n3ncc(C(=O)NCc4ccc(F)cc4)c3N2)cc1 | 6.3 | 0.15 µM (≈ 0.0649 µg/mL) | < 4 µM | < 0.01 | < 0.01 | 31 mL/min/kg | 18.9 µM·h | 4.2 h | 4.5 | 6.3 L/kg | 3.2 | Not Active | 65% | Not Active | Not Active |  | 43.5 µL/min/mg | Not Active | 3.6 µM | Not Active | AUC [19]: 91.1 µM·h; Cmax [20]: 8.3 µM; Activity [21]: Active; log10cfu [14]: 3.5
Cc1ccc([C@H]2C[C@@H](C(F)(F)F)n3ncc(C(=O)NCc4ccc(F)cc4)c3N2)nc1 | 4.4 | 0.44 µM (≈ 0.191 µg/mL) | 9 µM (≈ 3.9 µg/mL) | 0.039 | 0.042 | 38 mL/min/kg | 25 µM·h | 1.3 h | 2.1 | 3.4 L/kg | 1.9 | Not Active | 100% | Not Active | Not Active | inactive | 71.8 µL/min/mg | Not Active | 3.6 µM | Not Active | AUC [12]: 91.9 µM·h; Cmax [17]: 11.8 µM
CC[C@@H](CO)NCCN[C@@H](CC)CO |  |  |  |  |  |  |  |  |  |  |  |  |  |  |  | Active |  |  |  |  | 
Cc1ccc([C@H]2C[C@@H](C(F)F)n3ncc(C(=O)NCc4ccc(F)cc4)c3N2)nc1 | 4.6 | 0.6 µM (≈ 0.249 µg/mL) | 212 µM (≈ 88.1 µg/mL) | 0.043 | 0.052 | 24 mL/min/kg | 16.8 µM·h | 1.8 h | 2.8 | 2.6 L/kg | 1.7 | Not Active | 53% | Not Active | Not Active | inactive | 85.6 µL/min/mg | Not Active | 5.5 µM | Not Active | AUC [12]: 77.7 µM·h; Cmax [17]: 15.2 µM
